# Test results published in patent US20100137239A1, “GEMCITABINE COMBINATION THERAPY” (GLOUCESTER PHARMACEUTICALS, priority 2006, published 2010).
# “And” between values parts separate entries of the source, which are not always exact repeats. Identical values can stand only once. “Also recorded” adds a separate entry of the source.
# Tests used:
# [1] = BxPC-3 study: animal weight and drug toxicity
# Description: Model Information—Female nude mice (nu/nu) between 5 and 6 weeks of age weighing approximately 20 grams were obtained from Harlan, Inc. (Madison, Wis.). PANC-1, obtained from the ATCC, is a pancreas tumor cell line originating from a person^(1-2). BxPC-3, obtained from the American Type Culture Collection (ATCC), is a pancreas tumor cell line originating from a person^(3-4). PANC-1 Study: Animals were implanted subcutaneously (SC) by trocar with fragments of PANC-1 harvested from SC growing tumors in nude mice hosts. When tumors grew to approximately 135 cubic millimeters (mm^3) in size (17 days following implantation, animals were pair-matched by tumor size into treatment and control groups; each treatment group contained nine mice. BxPC-3 Study: Animals were implanted subcutaneously (SC) by trocar with fragments of BxPC-3 harvested from SC growing tumors in nude mice hosts. When tumors grew to approximately 85 cubic millimeters (mm^3) in size (19 days following implantation), animals were pair-matched by tumor size into treatment and control groups; each treatment group contained nine mice. Animals in both studies were ear-tagged and followed individually throughout the experiment.
# Study Design and Dosing—Initial doses were administered on Day 1 following pair-matching; both experiments were carried out as tumor growth inhibition (TGT) studies. Animals were dosed intravenously (IV) via tail vein with FK228 once every four days for three treatments (Q4Dx3) or by intraperitoneal (IP) injection with gemcitabine once every three days for four treatments (Q3Dx4), either alone or in combination, at the doses listed below (Table 1). To serve as a negative control, FK228 vehicle (2% ethanol, 8% propylene glycol, 90% 0.9% saline) was injected on a Q4Dx3 schedule.
# Animal Weights—Individual and group mean weights ±SD and percent weight change through Day 25 (PANC-1) or Day 29 (BxPC-3) were recorded twice weekly until study completion beginning Day 1. Final group mean weights ±SD and group nadir values are reported; weight data from individual animals experiencing technical or drug-related deaths was censored from final group calculations.
# Moribundity/Mortality—Animals were observed twice weekly for general moribundity and daily for mortality. Animal deaths were assessed as drug-related or technical based on factors including gross observation and weight loss; reported animal death information includes type, number, and day of death for each group.
# Statistics—Statistical analyses were carried out between treated and control groups comparing final weight, percent weight change, and tumor growth inhibition (Appendix III). For these groups, a two-tailed One-Way Analysis of Variance (ANOVA) followed by the Dunnett multiple comparisons test was employed. All analyses are performed using GraphPad Prism® software (version 4.0). Weight and tumor data from individual animals experiencing technical or drug-related deaths was censored from analysis.
# [2] = tested on: NIH-3T3 cells transformed by H, K, N-Ras and the rat Her-2/NeuT; experiment: 4-day proliferation assay, transformed NIH-3T3 cell lines; type: cell-based, mouse; settings: 2 nM romidepsin
# Method: (§1) A series of transformed NIH-3T3 cell likes were generated and a proliferation assay was performed in the presence of 2, 3, or 4 nM romidepsin. FIG. 23 illustrates the transformed morphology of the cells. FIG. 24 presents graphs of cell proliferation.
# B-Raf 600E cells = experiment: 4-day proliferation assay, B-Raf 600E NIH-3T3 cells; type: cell-based, mouse; settings: 2, 3, or 4 nM romidepsin
# Method: as §1
# p21^waf = experiment: Immunoblot of p21^waf in PANC-1 xenograft tumors; type: in vivo, human; settings: FK228 5 mg/kg Q4Dx3; gemcitabine 80 mg/kg Q3Dx4; tumors at study completion; vs controls
# Method: Abstract: To examine activity and mechanism of FK228, antitumor efficacy was tested in PANC-1 pancreatic adenocarcinoma model representing transformed Ras, either as a single agent or in combination with gemcitabine. Following PANC-1 study completion, tumor and sera were obtained from: • the vehicle control; • FK228 dosed at 5 mg/kg once every four days for three treatments (Q4Dx3); • Gemcitabine at 80 mg/kg (Q3Dx4); and • the drug combination. Expression of c-Myc, acetylated histones 3 and 4, and p21^waf1 was compared between control and FK228 groups by immunoblotting and was quantified following actin normalization. Serum levels of putative tumor products b-FGF and MMP-2 were quantified by human-specific ELISA. […]
# Tissue Biomarkers: Tumor levels of acetylated histone-4, histone-4, c-Myc, p21waf and β-actin were quantified by immunoblotting as described. […] The chemiluminescence signal was captured by autoradiography, quantified by densitometry and expressed as a ratio of actin in each sample lane. For each biomarker, means and standard errors were calculated in each treatment group. […]
# Expression of c-Myc, acetylated histones 3 and 4, and p21^waf1 was compared between control and FK228 groups by immunoblotting and was quantified following actin normalization. Serum levels of putative tumor products b-FGF and MMP-2 were quantified by human-specific ELISA. […]
# [3] = FK228 2.5 mg/kg IV Q4Dx3, 2.5 mg/kg
# [4] = FK228 5 mg/kg IV Q4Dx3, 5 mg/kg
smiles,measurement,setting,value
"C/C=C1\NC(=O)[C@H]2CSSCC/C=C/[C@H](CC(=O)N[C@H](C(C)C)C(=O)N2)OC(=O)[C@H](C(C)C)NC1=O [FK228, romidepsin]",FINAL WEIGHT (DAY 29) % CHANGE,[1]; FK228 2.5 mg/kg IV Q4Dx3,+10%
same,WEIGHT NADIR % CHANGE,[1]; FK228 2.5 mg/kg IV Q4Dx3,−5%
same,WEIGHT NADIR DAY,[1]; FK228 2.5 mg/kg IV Q4Dx3,11
same,DRUG DEATHS TOTAL,[1]; [3],0/9 and 0
same,FINAL WEIGHT (DAY 29) MEAN(G) ± SD,[1]; [3],25±2 G
same,FINAL WEIGHT (DAY 29) % CHANGE,[1]; FK228 5 mg/kg IV Q4Dx3,+7%
same,WEIGHT NADIR % CHANGE,[1]; FK228 5 mg/kg IV Q4Dx3,−15%
same,WEIGHT NADIR DAY,[1]; FK228 5 mg/kg IV Q4Dx3,11
same,DRUG DEATHS TOTAL,[1]; [4],0/9 and 0
same,FINAL WEIGHT (DAY 29) MEAN(G) ± SD,[1]; [4],24±1 G
same,proliferation of transformed vs untransformed cells,[2],selectively inhibited
same,potency on B-Raf 600E cells,B-Raf 600E cells,not potent
"Nc1ccn([C@@H]2O[C@H](CO)[C@@H](O)C2(F)F)c(=O)n1 [Gemcitabine, gemcitabine]",p21^waf expression,p21^waf,downregulated; also recorded: down-regulated
same,DRUG DEATHS TOTAL,[1]; Gemcitabine 40 mg/kg IP Q3Dx4,0/9 and 0
same,FINAL WEIGHT (DAY 29) % CHANGE,[1]; Gemcitabine 40 mg/kg IP Q3Dx4,+9%
same,weight loss (nadir),[1]; Gemcitabine 40 mg/kg IP Q3Dx4,No weight loss
same,DRUG DEATHS TOTAL,[1]; Gemcitabine 80 mg/kg IP Q3Dx4,0/9 and 0
same,FINAL WEIGHT (DAY 29) % CHANGE,[1]; Gemcitabine 80 mg/kg IP Q3Dx4,+1%
same,FINAL WEIGHT (DAY 29) MEAN(G) ± SD,[1]; Gemcitabine 80 mg/kg IP Q3Dx4,22±4 G and 22 + 4 G
same,WEIGHT NADIR % CHANGE,[1]; Gemcitabine 80 mg/kg IP Q3Dx4,−9%
same,WEIGHT NADIR DAY,[1]; Gemcitabine 80 mg/kg IP Q3Dx4,11
